Data published in patent US4291024A, “Cytotoxic liponucleotide analogs” (priority 1980, dated 1981).
Where a name gives a salt, the structure may show the parent alone.

Assays:
LD10 (lethality) = format: in vivo; details: ×4 regimen
CMI-DTH reactions = assay: CMI-DTH reactions; format: in vivo, mouse
[1] = system: mouse antisheep erythrocyte antibody-forming cells; assay: Suppression of IgM and IgG mouse antisheep erythrocyte antibody-forming cells (AFC); format: in vivo
[2] = system: human colon carcinoma HCT-15 cells; assay: Antitumor activity against human colon carcinoma in immunosuppressed mice; format: in vivo, mouse; details: for TUMOR WEIGHT: control 89.7 ± 4.9
Procedure: Male B6D2F1 mice (18-22 g, 4/group) were immunosuppressed with 0.25 ml subcutaneous injection of ATS on days -1,0,1,3 and 6. Human colon carcinoma cells (5.0×10^6 cells/mouse) were inoculated subcutaneously into an area slightly above the left inguinal region on day 0. The drug dissolved in saline to a volume of 0.1 ml was injected intraperitoneally once a day for four consecutive days. Saline was administered to the controls. The percent change in body weight from the onset to the day of weighing the tumor was used as an indication of drug toxicity.

[3] = system: leukemia L5178Y ascites cells; assay: Survival time of mice bearing leukemia L5178Y ascites cells, Ia-11-diglyceride; format: in vivo, mouse; details: for AVERAGE SURVIVAL (DAYS ± S.E.): control 17.6 ± 0.2; for prolongation of survival times: mice bearing leukemia L5178Y cells
Procedure: Mice (10/group) were inoculated with L5178Y cells (5×10^6 cells/mouse) and drug injections were begun on the second day. The drug in a volume of 0.1 ml was injected intraperitioneally once a day for four consecutive days. Saline was administered to the controls. The percent change in body weight from the onset to the termination of therapy was used as an indication of drug toxicity.

[4] = system: murine leukemic cells L5178Y; assay: Inhibition of reproduction of murine leukemic cells L5178Y by cytotoxic liponucleotide analogs - 72 hours; format: cell-based; details: for IC50: read-out: MOLAR CON[…] 50 PERCENT INHIBITION, 50% decrease in number of doublings vs untreated controls, read-out: MOLAR CONCENTRATION CAUSING 50 PERCENT INHIBITION
Procedure: The leukemic cells L5178Y were grown from an inoculum of 4×10^3 cells per ml for a period of 72 hours in the presence of different levels (10^-4 -10^-7 M) of drugs.

leukemic cells L5178Y = assay: Animal antitumor activity of liponucleotides (leukemic cell kill in the peritoneal cavity); format: in vivo, mouse; details: for PERCENT SURVIVAL: L5178Y i.p., control 100
Procedure: The leukemic cells L5178Y (4×10^5 cells/mouse) were injected intraperitoneally on day 0. Drugs at various dosages (20 mg/kg, 40 mg/kg and 100 mg/kg) were injected on day 5 and incubated for 2 hours. At the end of the incubations, 5.0 ml of Fischer's medium containing 10% horse serum (FMS) was injected […].). After mixing, 1.0 ml aliquots were withdrawn and transferred to culture tubes containing 5.0 ml of FMS. Cells were centrifuged immediately, washed 2 xs and resuspended in 5.0 ml of FMS. Cell viability was determined by the dilute agar colony method.

[5] = system: murine leukemic cells L5178Y; assay: Inhibition of reproduction of murine leukemic cells L5178Y by liponucleotides - 2 hours (dilute agar colony method); format: cell-based; details: for viability at 100 µM / viability at 10 µM / viability at 1 µM / viability at 0.1 µM: Mus musculus, L5178Y, 2 hours, untreated control normalized to 100%, read-out: PERCENT SURVIVAL; for viability at 100 µM: 1 × 10^-4 M; for viability at 10 µM: 1 × 10^-5 M; for viability at 1 µM: 1 × 10^-6 M; for viability at 0.1 µM: 1 × 10^-7 M
Procedure: L5178Y cells (2×10^5 /ml) in the exponential phase of growth were incubated singly with drugs for a period of 2 hours at concentrations of […] to 1×10^-7 M. Cell viability was determined by the dilute agar colony method. Each observation represents the mean value of three experimentations with four replicates per experiment. A minimum of 200 colonies were counted for each group. The cloning efficiency of the untreated cells was approximately 75%; all values were normalized to 100%.

[6] = system: leukemia L5178Y ascites cells; assay: Survival time of mice bearing leukemia L5178Y ascites cells, Ia-11-dipalmitin; format: in vivo, mouse; details: for PER CENT CHANGE IN LIFE SPAN / AVERAGE SURVIVAL / PER CENT CHANGE IN WEIGHT: i.p. twice a day ×4 days; for AVERAGE SURVIVAL: control 15.0 ± 0.28; for PER CENT CHANGE IN WEIGHT: control -1.4
Procedure: Mice (10/group) were inoculated with L5178Y cells (5×10^6 cells/mouse) and drug injections were begun on the second day. The drug in a volume of 0.2 ml was injected intraperitoneally twice a day at a five-hour interval for four consecutive days. Distilled water was administered to the controls. The percent change in body weight from the onset to the termination of therapy was used as an indication of drug toxicity.

[7] = 50 mg/kg/day×4, intraperitoneal
[8] = 30 mg/kg daily dosage (first 30 line)
[9] = 30 mg/kg daily dosage (second 30 line)

Compound: Nc1ccn([C@@H]2O[C@H](CO)[C@@H](O)[C@@H]2O)c(=O)n1 [Cytosine Arabinoside, cytosine arabinoside, reference compound]
- LD10 (LD10 (lethality)): 71 mg/kg/day×4
- suppression of CMI-DTH reactions (CMI-DTH reactions; 11 or 50 mg/kg): poorly suppressed
- reduction of peak (day 4) number of IgM AFC/10^6 spleen cells ([1]; 11 mg/kg/day×4): 63%
- reduction of peak (day 5) number of IgG AFC/10^6 spleen cells ([1]; 11 mg/kg/day×4): 55%
- peak (day 5) number of IgG AFC/10^6 spleen cells ([1]; 11 mg/kg/day×4, from 494±123): 224±72 AFC/10^6 spleen cells
- peak (day 4) number of IgM AFC/10^6 spleen cells ([1]; 11 mg/kg/day×4, from 495±130): 180±28 AFC/10^6 spleen cells
- AFC ([1]; 50 mg/kg/day×4): background levels
- inhibition of tumor cell growth ([2]; 200 mg/kg/day×4, determined by palpation): no inhibition of tumor cell growth
- change in life spans as compared with control animals ([3]; 13 mg/kg×4 (dose "equivalent" to 50 mg of Ia-11-diglyceride by molecular weight), inferred): no change in life spans
- % CHANGE IN LIFE SPAN ([3]; 50.0 mg/kg daily i.p. ×4 days): +17.6%
- AVERAGE SURVIVAL (DAYS ± S.E.) ([3]; 50.0 mg/kg daily i.p. ×4 days): 20.7 ± 5.4 days
- % CHANGE IN WEIGHT ([3]; 50.0 mg/kg daily i.p. ×4 days, control +0.66): -6.90%
- prolongation of survival times ([3]; 50 mg/kg/day×4): 18%

Compound: 1-Beta-D-Arabinofuranosylcytosine-5'-diphosphate-L-diglyceride Diammonium Salt [Ia-11-Diglyceride]
- antitumor activity in culture relative to Ia-11-dipalmitin ([4]; in culture (Table 2)): superior activity
- delay of peak DTH response (CMI-DTH reactions; 50 mg/kg, (day 4-7) or more): ≥ 3 days
- immunostimulatory activity on DTH (CMI-DTH reactions; 50 mg/kg, later periods, judged by very late rising profile of response): may have immunostimulatory activity on DTH at later periods
- IgG AFC/10^6 spleen cells [1, 7]: background levels
- IgG AFC/spleen [1, 7]: background levels
- IgM AFC/10^6 spleen cells [1, 7]: background levels
- IgM AFC/spleen [1, 7]: background levels
- suppression of IgM and IgG AFC relative to cytosine arabinoside "equivalent" ([1]; mouse, in vivo): more pronounced suppression
- PER CENT OF CONTROL TUMOR WEIGHT ([2]; 25 mg/kg daily i.p. ×4 days): 68.4 ± 15.6 PER CENT
- TUMOR WEIGHT ([2]; 25 mg/kg daily i.p. ×4 days): 61.3 ± 14.0 mg
- PER CENT OF CONTROL TUMOR WEIGHT ([2]; 50 mg/kg daily i.p. ×4 days, *P 0.005 (1tailed "t" test)): 21.0 ± 13.5 PER CENT
- TUMOR WEIGHT ([2]; 50 mg/kg daily i.p. ×4 days): 18.7 ± 12.0 mg
- inhibition of tumor growth ([2]; 50 mg/kg/day×4, excised tumors weighed, vs non-treated control): 80%
- % CHANGE IN LIFE SPAN ([3]; 12.5 mg/kg daily i.p. ×4 days): +29.6%
- AVERAGE SURVIVAL (DAYS ± S.E.) ([3]; 12.5 mg/kg daily i.p. ×4 days): 22.0 ± 0.6 days
- % CHANGE IN LIFE SPAN ([3]; 25.0 mg/kg daily i.p. ×4 days): +44.3%
- AVERAGE SURVIVAL (DAYS ± S.E.) ([3]; 25.0 mg/kg daily i.p. ×4 days): 25.4 ± 1.1 days
- % CHANGE IN LIFE SPAN ([3]; 50.0 mg/kg daily i.p. ×4 days): +93.2%
- AVERAGE SURVIVAL (DAYS ± S.E.) ([3]; 50.0 mg/kg daily i.p. ×4 days): 34.0 ± 2.4 days
- log cell kill ([3]; 50 mg/kg/day×4): 4 log
- prolongation of survival times ([3]; 50 mg/kg/day×4): 93%
- difference in antitumor activity in vivo vs Ia-11-dipalmitin ([3]; Table 4 compared with Table 5): significant difference in antitumor activity in vivo
- in vivo activity relative to cytosine arabinoside ([3]; leukemia L5178Y in vivo (Table 4)): significantly more active than cytosine arabinoside

Compound: CCCCCCCCCCCCCCCC(=O)OCC(COP(=O)(O)OP(=O)(O)OC[C@H]1O[C@@H](n2ccc(N)nc2=O)[C@H](O)[C@@H]1O)OC(=O)CCCCCCCCCCCCCCC (mixture of isomers) [Ia-1-Dipalmitin, 1-Beta-D-Ribofuranosylcytosine-5'-Diphosphate-DL-1,2-Dipalmitin Diammonium Salt]
- PERCENT SURVIVAL (leukemic cells L5178Y; 20 mg/kg on day 5, 2 hours): 57%
- PERCENT SURVIVAL (leukemic cells L5178Y; 40 mg/kg on day 5, 2 hours): 54%
- PERCENT SURVIVAL (leukemic cells L5178Y; 100 mg/kg on day 5, 2 hours): 43%
- activity relative to the CLNA molecule containing the beta-D-arabinofuranosyl moiety (leukemic cells L5178Y; peritoneal cavity (Table 3)): activity comparable to the CLNA molecule
- viability at 100 µM [5]: 65.7 ± 5.69%
- viability at 10 µM [5]: 76.7 ± 6.66%
- viability at 1 µM [5]: 94.7 ± 4.04%
- viability at 0.1 µM [5]: 94.7 ± 5.03%
- activity relative to the CLNA molecule containing the beta-D-arabinofuranosyl moiety ([5]; in culture (Table 1)): activity comparable to the CLNA molecule

Compound: CCCCCCCCCCCCCCCC(=O)OCC(COP(=O)(O)OP(=O)(O)OC[C@H]1O[C@@H](n2ccc(N)nc2=O)[C@@H](O)[C@@H]1O)OC(=O)CCCCCCCCCCCCCCC (mixture of isomers) [Ia-11-Dipalmitin, 1-Beta-D-Arabinofuranosylcytosine-5'-diphosphate-DL-1,2-dipalmitin Diammonium Salt]
- PERCENT INHIBITION AT 10^-4 M ([4]; 10^-4 M, 72 hours, listed as ara-CDP-dipalmitin, Diammonium Salt): less than 50%
- inhibition at 100 µM ([4]; Mus musculus, L5178Y, 72 h, 10^-4 M, 72 hours, read-out: PERCENT INHIBITION AT 10^-4 M): 42%
- PERCENT SURVIVAL (leukemic cells L5178Y; 20 mg/kg on day 5, 2 hours): 61%
- PERCENT SURVIVAL (leukemic cells L5178Y; 40 mg/kg on day 5, 2 hours): 58%
- PERCENT SURVIVAL (leukemic cells L5178Y; 100 mg/kg on day 5, 2 hours): 43%
- PER CENT CHANGE IN LIFE SPAN [6, 8]: +24.0 PER CENT
- AVERAGE SURVIVAL [6, 8]: 18.6 ± 0.22 days
- PER CENT CHANGE IN WEIGHT [6, 8]: -5.0 PER CENT
- PER CENT CHANGE IN LIFE SPAN [6, 9]: +32.0 PER CENT
- AVERAGE SURVIVAL [6, 9]: 19.8 ± 0.82 days
- PER CENT CHANGE IN WEIGHT [6, 9]: -5.86 PER CENT
- PER CENT CHANGE IN LIFE SPAN ([6]; 50 mg/kg daily dosage): +37.3 PER CENT
- AVERAGE SURVIVAL ([6]; 50 mg/kg daily dosage): 20.6 ± 0.76 days
- PER CENT CHANGE IN WEIGHT ([6]; 50 mg/kg daily dosage): -3.5 PER CENT
- in vivo activity relative to cytosine arabinoside ([6]; leukemia L5178Y in vivo (Table 5)): significantly more active than cytosine arabinoside
- viability at 100 µM [5]: 65 ± 1.73%
- viability at 10 µM [5]: 84.3 ± 0.58%
- viability at 1 µM [5]: 90 ± 4.58%
- viability at 0.1 µM [5]: 94 ± 3%

Compound: Nc1ccn([C@@H]2O[C@H](COP(=O)(O)O)[C@@H](O)[C@@H]2O)c(=O)n1 [Cytosine Arabinoside 5'-Phosphate]
- IC50 ([4]; Mus musculus, L5178Y, 72 hours): 0.27 µM
- viability at 100 µM [5]: 54.8 ± 1.54%
- viability at 10 µM [5]: 87.5 ± 5.18%
- viability at 1 µM [5]: 93 ± 8.9%
- viability at 0.1 µM [5]: 99 ± 5.21%

Compound: CCCCCCCCCCCCCCCC(=O)OCC(COP(=O)(O)OP(=O)(O)OC[C@H]1O[C@@H](n2ccc(N)nc2=O)[C@@H](O)[C@@H]1O)OC(=O)CCCCCCCCCCCCCCC (stereo partly shown)
- IC50 ([4]; Mus musculus, L5178Y, 72 hours): 14 µM
